In patent US11446304B2, “CDC-7-inhibitor compounds and use thereof for the treatment of neurological conditions” (CONSEJO SUPERIOR DE INVESTIGACIONES CIENTIFICAS (CSIC), priority 2017, dated 2022):

Columns and labels:
human recombinant CDC7 = molecular target: T1, human recombinant CDC7 (Homo sapiens, UniProt O00311); assay: CDC7 inhibition measurement (ADP-Glo technology); format: biochemical; conditions: ATP 10 μM, 60 min at room temperature; read-out: CDC7 ADP-Glo ™ CI50
T1 construct: purchased Promega V5089
T1 sequence (O00311 whole entry): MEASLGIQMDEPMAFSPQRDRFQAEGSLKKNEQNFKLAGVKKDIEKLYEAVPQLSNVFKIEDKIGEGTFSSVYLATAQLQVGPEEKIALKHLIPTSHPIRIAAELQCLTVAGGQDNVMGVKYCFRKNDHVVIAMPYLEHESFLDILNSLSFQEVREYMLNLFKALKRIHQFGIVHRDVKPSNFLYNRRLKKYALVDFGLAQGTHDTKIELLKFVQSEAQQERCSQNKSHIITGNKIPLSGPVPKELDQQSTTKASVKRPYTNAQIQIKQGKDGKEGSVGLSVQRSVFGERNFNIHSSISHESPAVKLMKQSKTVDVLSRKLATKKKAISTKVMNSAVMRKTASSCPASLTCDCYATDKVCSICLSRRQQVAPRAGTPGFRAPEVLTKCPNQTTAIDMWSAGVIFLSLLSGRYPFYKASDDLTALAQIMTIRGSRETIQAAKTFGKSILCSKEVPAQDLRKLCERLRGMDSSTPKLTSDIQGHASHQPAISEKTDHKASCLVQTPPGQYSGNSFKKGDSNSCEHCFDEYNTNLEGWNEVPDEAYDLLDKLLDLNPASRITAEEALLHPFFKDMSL
T1 sequence (Q9UBU7 whole entry partner): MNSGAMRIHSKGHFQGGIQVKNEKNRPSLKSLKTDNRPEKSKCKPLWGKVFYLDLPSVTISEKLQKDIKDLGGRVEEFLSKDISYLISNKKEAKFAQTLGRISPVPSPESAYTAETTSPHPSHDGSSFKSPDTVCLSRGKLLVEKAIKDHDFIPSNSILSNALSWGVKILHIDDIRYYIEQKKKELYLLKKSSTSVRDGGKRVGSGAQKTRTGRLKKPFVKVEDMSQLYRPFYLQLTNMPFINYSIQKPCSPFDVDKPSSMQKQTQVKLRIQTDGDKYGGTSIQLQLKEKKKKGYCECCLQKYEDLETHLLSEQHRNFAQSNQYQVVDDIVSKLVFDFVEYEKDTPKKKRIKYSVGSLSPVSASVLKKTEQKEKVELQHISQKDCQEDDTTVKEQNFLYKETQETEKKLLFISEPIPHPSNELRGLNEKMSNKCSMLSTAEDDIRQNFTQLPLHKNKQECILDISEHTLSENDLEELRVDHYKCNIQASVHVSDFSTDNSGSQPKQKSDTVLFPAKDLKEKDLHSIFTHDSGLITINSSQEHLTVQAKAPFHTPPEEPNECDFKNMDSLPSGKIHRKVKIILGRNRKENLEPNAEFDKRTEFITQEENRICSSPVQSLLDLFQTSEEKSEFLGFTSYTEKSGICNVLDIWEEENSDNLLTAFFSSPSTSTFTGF
Method: The method used is a non-radioactive enzyme inhibition assay using human recombinant CDC7. It is based on luminometric quantification of inhibition using the ADP-Glo™ Kinase Kit. In this test the luminescent signal correlates positively with the amount of adenosine diphosphate (ADP) and the activity of the kinase. […]
CDC7 enzyme inhibition studies were conducted using the promega kit: ADP-Glo™ Kinase Assay+CDC7/DBF4 Kinase Enzyme System (Catalogue No. V5089). ATP and other reagents were purchased in Sigma-Aldrich (St. Louis, Mo.). The trials were performed in a buffer solution using 96-well plates. The compound to be tested (5 μL, 40 μM dissolved in DMSO 4%) was added to each well followed by the enzyme (5 μL, 25 ng/well), ATP (5 μL, final concentration in well 10 μM) and PDKtidE (5 μL, 4 μg/well). It was then incubated for 60 minutes at room temperature and the reagent ADP-Glo™ (20 μL) was added and incubated again for 40 min at room temperature. After incubation, the kinase detection agent (40 μL) was added and incubated for 30 min at room temperature. Finally, the luminescence (integration time of 0.5-1 sec) was measured using a POLARstar Optima multimode reader polarimeter. Inhibition activities were calculated as a function of maximum activity, measured in the absence of inhibitor.

[1] = PAMPA blood-brain barrier permeation (porcine brain lipid); format: in vitro ADME; conditions: for Papp at 2.5 h: PAMPA-BHE, PBS pH 7.4/EtOH 70:30, 2 h 30 min at 25° C., mean ± SD, read-out: Pe; for PAMPA prediction of central nervous system (CNS) penetration: from Pe in PAMPA-BHE
From the text: An essential requirement for drugs for the treatment of neurodegenerative diseases is the ability to cross the blood-brain barrier (BBB), as otherwise they could not act on the target of interest. Therefore, for compounds that are not permeable or located in the area of uncertainty, it may be necessary to properly convey a pharmaceutical formulation through methods known to an expert in the field, such as encapsulation. This capability can be predicted in vitro using a method known by the acronym PAMPA (Parallel Artificial Membrane Permeability Assay) described by Di et al (Di, L.; Kerns, E. H.; Fan, K.; McConnell, O. J.; Carter, G. T. Eur. J. Med. Chem. 2003, 38 (3), 223-232) and which has subsequently been fine-tuned in our research group. This method allows predicting the effective permeability through artificial membranes by means of a passive diffusion process.
First of all, it is necessary to validate the method, for which 10 commercial compounds are used whose penetration capacity in the central nervous system (CNS) is known and which are to be specified below, obtaining in this case a good linear correlation between the experimental permeability values (Pe) and those described (FIG. 1). This correlation line obtained following the pattern described in the bibliography allows establishing the limits to predict whether or not a compound can cross the blood-brain barrier. Thus, a compound is considered BBB permeable (SNC+) if it has a permeability>4.48×10^−6 cm-s^−1.
For the procedure, between 3-5 mg of caffeine, desipramine, enoxacin, hydrocortisone, ofloxacin, piroxicam and testosterone, 12 mg of promazine and 25 mg of atenolol and verapamil were taken and dissolved in EtOH (1000 μL). 100 μL of these solutions were taken and EtOH (1400 μL) and phosphate buffer (PBS) pH=7.4 (3500 μL) were added in order to achieve a final EtOH concentration of 30% v/v in solution. Finally, the dissolutions were filtered.
On the other hand, a PBS/EtOH solution (70:30) was added to each well of the acceptance plate (180 μL). The donor plate was impregnated with a porcine brain lipid solution (4 μL) dissolved in dodecane (20 mg mL^−1). After 5 min, dissolution of each compound was added to this plate (180 μL).
Of the compounds 1 to 10 evaluated, 1-2 mg were taken and dissolved in EtOH (1500 μL) and phosphate buffer (PBS) pH=7.4 (3500 μL), filtered and added to the donor plate. With these solutions, the wavelengths at which the compounds absorb are determined and the initial absorbance levels at these wavelengths are measured using a UV absorbance reader. Each sample was analyzed from two to five wavelengths, in three wells and in two independent experiments.
The donor plate was then deposited on the acceptor forming a kind of “sandwich” and incubated for 2 hours and 30 minutes at 25° C. In this way, the compounds will pass from the donor plate to the acceptor plate through the porcine brain lipid by passive diffusion. After that time, the donor plate is carefully removed and the concentration and final absorbance of both commercial and synthesized compounds is determined. The results obtained are expressed as the mean of the measurements [standard deviation (SD)] of the different experiments carried out and are shown in table 2.

[2] = molecular target: human recombinant CDC7/DBF4 (Homo sapiens, UniProt O00311); assay: CDC7 inhibition measurement (LanthaScreen Eu kinase binding, FRET); conditions: CDC7/DBF4 0.5 nM, 60 min at room temperature; read-out: CDC7 Lantha ™ CI50
human recombinant CDC7/DBF4, sequence (O00311 whole entry): as the sequence (O00311 whole entry) above
human recombinant CDC7/DBF4, sequence (Q9UBU7 whole entry partner): as the sequence (Q9UBU7 whole entry partner) above
From the text: The LanthaScreen Eu kinases inhibition assay uses an Alexa marker Fluor™ that binds to a kinase and is detected by the addition of an Eu-marked antibody. The binding of the marker and the antibody to the kinase results in a high degree of FRET, while the displacement of the marker by an inhibitor results in a loss of FRET. Unlike many other kinase activity tests, this is a simple mix and read test, with no developmental stages. This test method has been developed by Life Technologies and identifies competitive ATP kinase inhibitors, making them suitable for the detection of any compound that binds to the ATP site.
The compounds are evaluated at 1% DMSO (final) in the well. A mixture of human recombinant CDC7/DBF4 (0.5 nM), Eu-antiGST antibody (2 nM) and AlexaFluor marker (1 nM) has been used in a buffer of 50 mM HEPES pH 7.5, 0.01% BRIJ-35, 10 mM MgCl2, 1 mM EGTA in white plates of […], low volume, coded (Greiner cat. #784207), 160 nL (100×100% DMSO compound), 3.84 μL (buffer with CDC7/DBF4), 8.0 μL (antibody), 4.0 μL (marker) are added. Agitate 30 s and incubate at room temperature for 60 min. Then measure the fluorescence in the plate reader and analyze the data (Table 1).

Row | SMILES | IC50 (human recombinant CDC7) | melting point | Papp at 2.5 h [1] | PAMPA prediction of central nervous system (CNS) penetration [1] | IC50 [2]
1 | FC(F)(F)c1cccc(CSc2ncnc3[nH]cnc23)c1 [Compound 7, 6-((3-(trifluoromethyl)benzyl)thio)-9H-purine] | 6900 ± 830 nM | 180 to 182 °C | 16.3 ± 0.6 ×10⁻⁶ cm/s | SNC+ (a compound is considered BBB permeable (SNC+) if it has a permeability>4.48×10^−6 cm-s^−1) | –
2 | N#Cc1ccc(CSc2ncnc3[nH]cnc23)cc1 [Compound 19, 6-((4-Cyanobenzyl)thio)-9H-purine] | – | 228 to 230 °C | 2 ± 0.7 ×10⁻⁶ cm/s | SNC+/− | –
3 | Brc1cccc(CSc2ncnc3[nH]cnc23)c1 [Compound 11, 6-((3-bromobenzyl)thio)-9H-purine] | 5290 ± 710 nM | – | – | – | 138 nM
4 | Brc1ccc(COc2ncnc3[nH]cnc23)cc1 [Compound 21, 6-((4-Bromobenzyl)oxy)-9H-purine] | – | – | 14 ± 1.4 ×10⁻⁶ cm/s | SNC+ (a compound is considered BBB permeable (SNC+) if it has a permeability>4.48×10^−6 cm-s^−1) | –
5 | CC(=O)Nc1ccc(CSc2ncnc3[nH]cnc23)cc1 [Compound 18, 6-((4-Acetamidobenzyl)thio)-9H-purine] | – | 223 to 225 °C | – | – | –
6 | FC(F)(F)c1ccccc1CSc1ncnc2[nH]cnc12 [Compound 4, 6-((2-(trifluoromethyl)benzyl)thio)-9H-purine] | 9730 ± 1030 nM | – | 17.5 ± 0.9 ×10⁻⁶ cm/s | SNC+ (a compound is considered BBB permeable (SNC+) if it has a permeability>4.48×10^−6 cm-s^−1) | 245 nM
7 | O=[N+]([O-])c1ccc(CSc2ncnc3[nH]cnc23)cc1 [Compound 17, 6-((4-nitrobenzyl)thio)-9H-purine] | – | – | 5.5 ± 1.3 ×10⁻⁶ cm/s | SNC+ (a compound is considered BBB permeable (SNC+) if it has a permeability>4.48×10^−6 cm-s^−1) | 127 nM
8 | Clc1cccc(COc2ncnc3[nH]cnc23)c1 [Compound 6, 6-((3-chlorobenzyl)oxy)-9H-purine] | 8980 ± 210 nM | 197 to 199 °C | 7.2 ± 0.6 ×10⁻⁶ cm/s | SNC+ (a compound is considered BBB permeable (SNC+) if it has a permeability>4.48×10^−6 cm-s^−1) | 194 nM
9 | Brc1ccc(CSc2[nH]cnc3ncnc2-3)cc1 [Compound 12, 6-((4-bromobenzyl)thio)-9H-purine] | 9140 ± 790 nM | – | 11.5 ± 0.7 ×10⁻⁶ cm/s | SNC+ (a compound is considered BBB permeable (SNC+) if it has a permeability>4.48×10^−6 cm-s^−1) | –
10 | Clc1ccc(CSc2ncnc3[nH]cnc23)cc1 [Compound 5, 6-((4-chlorobenzyl)thio)-9H-purine] | 8460 ± 1050 nM | 198 to 200 °C | 12.2 ± 1.2 ×10⁻⁶ cm/s | SNC+ (a compound is considered BBB permeable (SNC+) if it has a permeability>4.48×10^−6 cm-s^−1) | 184 nM
11 | Clc1ccccc1CSc1ncnc2[nH]cnc12 [Compound 14, 6-((2-Chlorobenzyl)thio)-9H-purine] | – | 200 to 202 °C | 18.1 ± 1.2 ×10⁻⁶ cm/s | SNC+ (a compound is considered BBB permeable (SNC+) if it has a permeability>4.48×10^−6 cm-s^−1) | 92 nM
12 | CSc1ccc(CSc2ncnc3[nH]cnc23)cc1 [Compound 23, 6-((4-(Methylthio)benzyl)thio)-9H-purine] | – | 203 to 205 °C | 17.8 ± 0.7 ×10⁻⁶ cm/s | SNC+ (a compound is considered BBB permeable (SNC+) if it has a permeability>4.48×10^−6 cm-s^−1) | 146 nM
13 | N#Cc1cccc(CSc2ncnc3[nH]cnc23)c1 [Compound 3] | 8380 ± 270 nM | 189 to 191 °C | 2.3 ± 0.2 ×10⁻⁶ cm/s | SNC+/− | 335 nM
14 | COc1cccc(CSc2ncnc3[nH]cnc23)c1 [Compound 15, 6-((3-methoxybenzyl)thio)-9H-purine] | – | – | 5.3 ± 0.8 ×10⁻⁶ cm/s | SNC+ (a compound is considered BBB permeable (SNC+) if it has a permeability>4.48×10^−6 cm-s^−1) | –
15 | c1ccc2c(CSc3ncnc4[nH]cnc34)cccc2c1 [Compound 2, 6-((Naphthalene-1-ylmethyl)thio)-9H-purine] | 11200 ± 840 nM | 221 to 222 °C | 13.2 ± 2 ×10⁻⁶ cm/s | SNC+ (a compound is considered BBB permeable (SNC+) if it has a permeability>4.48×10^−6 cm-s^−1) | 347 nM
16 | FC(F)(F)c1ccc(CSc2ncnc3[nH]cnc23)cc1 [Compound 22, 6-(4-(trifluoromethyl)benzylthio)-9H-purine] | – | – | 13.5 ± 1.6 ×10⁻⁶ cm/s | SNC+ (a compound is considered BBB permeable (SNC+) if it has a permeability>4.48×10^−6 cm-s^−1) | 367 nM
17 | CCOC(=O)c1ccccc1CSc1ncnc2[nH]cnc12 [Compound 16, Ethyl 2-(((9H-Purine-6-yl)thio)methyl)benzoate] | – | 145 to 147 °C | 9.7 ± 1.4 ×10⁻⁶ cm/s | SNC+ (a compound is considered BBB permeable (SNC+) if it has a permeability>4.48×10^−6 cm-s^−1) | 2790 nM
18 | c1ccc(COc2[nH]cnc3ncnc2-3)cc1 [Compound 20, 6-((benzyl)oxy)-9H-purine] | – | – | 2.9 ± 0.9 ×10⁻⁶ cm/s | SNC+/− | 167 nM
19 | O=[N+]([O-])c1cccc(CSc2ncnc3[nH]cnc23)c1 [Compound 10, 6-((3-nitrobenzyl)thio)-9H-purine] | 6540 ± 320 nM | 193 to 195 °C | 3.9 ± 0.4 ×10⁻⁶ cm/s | SNC+/− | –
